The assay concerns the target T1, HPK1 (Homo sapiens, UniProt Q92918).
T1 construct: A HiBiT tag was introduced by CRISPR on the N terminus of HPK1 in Jurkat cells; host or cells: Jurkat cells (ATCC TIB-152), monoclonal line with CRISPR knock-in of HiBiT at the endogenous HPK1 locus
Kind of assay: HPK1 Cellular HiBit Degradation Assay. The class given is cell-based. The note with it: HiBiT HPK1 Jurkat cells, 24 hrs; for DC50: concentration at which 50% of HPK1 was remaining, read-out: DC50 Category; for Dmax: Jurkat, maximum degradation vs DMSO vehicle control, read-out: Dmax Category. The gist of the method:
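Jurkat cells with CRISPR knock-in N-terminal HiBiT-HPK1 were treated with CTMs (11-point, 3.16-fold, 10 uM to 0.1 nM final) for 24 hrs at 37° C. HiBiT lytic luminescence, with parental Jurkat as background and DMSO as 100%, gave % HPK1 remaining; four-parameter fit yielded DC50 and Dmax (100 minus lowest % remaining).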
(In general: HiBiT is a short tag that completes a luciferase, so light tracks the accessible tagged protein.)

Each structure is given as a SMILES string.

T1 sequence (Q92918 whole entry): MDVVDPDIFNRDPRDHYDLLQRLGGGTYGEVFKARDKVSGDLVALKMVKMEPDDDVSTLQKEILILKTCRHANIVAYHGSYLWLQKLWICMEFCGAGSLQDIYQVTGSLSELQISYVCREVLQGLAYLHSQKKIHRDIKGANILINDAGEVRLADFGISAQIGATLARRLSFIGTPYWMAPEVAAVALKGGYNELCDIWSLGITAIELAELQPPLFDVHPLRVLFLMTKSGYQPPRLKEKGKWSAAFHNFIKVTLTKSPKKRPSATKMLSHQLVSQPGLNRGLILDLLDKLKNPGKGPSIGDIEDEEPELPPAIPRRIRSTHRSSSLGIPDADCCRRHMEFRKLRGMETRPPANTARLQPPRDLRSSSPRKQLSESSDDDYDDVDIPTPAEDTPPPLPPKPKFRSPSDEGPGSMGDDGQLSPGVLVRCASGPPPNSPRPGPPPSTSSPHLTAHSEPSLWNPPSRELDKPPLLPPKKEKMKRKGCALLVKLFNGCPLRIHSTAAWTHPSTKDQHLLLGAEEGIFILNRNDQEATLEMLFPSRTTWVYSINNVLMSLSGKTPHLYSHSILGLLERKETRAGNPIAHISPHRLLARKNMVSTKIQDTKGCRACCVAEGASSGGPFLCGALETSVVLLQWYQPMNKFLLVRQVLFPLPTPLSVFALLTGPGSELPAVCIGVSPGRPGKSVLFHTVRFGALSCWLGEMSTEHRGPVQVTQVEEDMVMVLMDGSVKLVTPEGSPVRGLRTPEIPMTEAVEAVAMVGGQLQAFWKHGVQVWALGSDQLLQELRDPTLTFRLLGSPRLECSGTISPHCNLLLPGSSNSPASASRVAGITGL

For the molecule `CC(C)n1cnc2cc(-c3ccc4c(c3)N([C@H]3C[C@@H](N5CCCCC5)C3)C(=O)C43CCN(C(=O)C4CN(C(=O)C5CCN(c6ccc(C7CCC(=O)NC7=O)cn6)CC5)CCC45CCC5)CC3)nc(NC3CC3)c21` (mixture of isomers) [Example 287, (3RS)-3-(6-{4-[5-({6-[4-(cyclopropylamino)-3-(propan-2-yl)-3H-imidazo[4,5-c]pyridin-6-yl]-2-oxo-1-[(1S,3S)-3-(piperidin-1-yl)cyclobutyl]-1,2-dihydrospiro[indole-3,4′-piperidin]-1′-yl}carbonyl)-7-azaspiro[3.5]nonane-7-carbonyl]piperidin-1-yl}pyridin-3-yl)piperidine-2,6-dione], the DC50 (usually the concentration at which degradation of the target reaches its halfway point) was < 100 nM and the Dmax (commonly the largest share of the target that was removed) is 70 to 85%.
As for `CC(C)n1cnc2cc(-c3ccc4c(c3)N([C@H]3C[C@@H](N5CCCCC5)C3)C(=O)C43CCN(C(=O)C4(C)CCN(C(=O)C5CCN(c6ccc(C7CCC(=O)NC7=O)cn6)CC5)CC4)CC3)nc(N3CC(C#N)C3)c21` (stereo partly drawn) [Example 175, 1-{6-[1′-(1-{1-[5-(2,6-dioxopiperidin-3-yl)pyridin-2-yl]piperidine-4-carbonyl}-4-methylpipe-ridine-4-carbonyl)-2-oxo-1-[(1S,3S)-3-(piperidin-1-yl)cyclobutyl]-1,2-dihydrospiro[indole-3,4′-pi-peridin]-6-yl]-3-(propan-2-yl)-3H-imidazo[4,5-c]pyridin-4-yl}azetidine-3-carbonitrile], the DC50 was < 100 nM and the Dmax was 70 to 85%.
As for `CC(C)n1cnc2cc(-c3ccc4c(c3)N([C@H]3C[C@@H](N5CCCCC5)C3)C(=O)C43CCN(C(=O)[C@@H]4CCN(C(=O)[C@H]5CC[C@H](Nc6cccc7c6n(C)c(=O)n7C6CCC(=O)NC6=O)CC5)C4)CC3)nc(Nc3ccccc3F)c21` (mixture of isomers) [Example 144, (3RS)-3-(3-methyl-2-oxo-4-{[(1R,4R)-4-[(3R)-3-[(6-{4-[(2-fluorophenyl)amino]-3-(propan-2-yl)-3H-imidazo[4,5-c]pyridin-6-yl}-2-oxo-1-[(1S,3S)-3-(piperidin-1-yl)cyclobutyl]-1,2-dihydrospiro[indole-3,4′-piperidin]-1′-yl)carbonyl]pyrrolidine-1-carbonyl]cyclohexyl]amino}-2,3-dihydro-1H-1,3-benzodiazol-1-yl)piperidine-2,6-dione], the DC50 was < 100 nM and the Dmax lay in the range of 50 to 70%.
With `CC(C)n1cnc2cc(-c3ccc4c(c3)N([C@H]3C[C@@H](N5CCCCC5)C3)C(=O)C43CCN(C(=O)C4(C)CCN(C(=O)[C@H]5CC[C@H](Oc6ccc(C7CCC(=O)NC7=O)cc6)CC5)CC4)CC3)nc(Nc3ccncc3F)c21` (mixture of isomers) [Example 103, (3RS)-3-(4-{[(1R,4R)-4-{4-[(6-{4-[(3-Fluoropyridin-4-yl)amino]-3-(propan-2-yl)-3H-imidazo[4,5-c]pyridin-6-yl}-2-oxo-1-[(1S,3S)-3-(piperidin-1-yl)cyclobutyl]-1,2-dihydrospiro[indole-3,4′-piperidin]-1′-yl)carbonyl]-4-methylpiperidine-1-carbonyl}cyclohexyl]oxy}phenyl)piperidine-2,6-dione], the DC50 is < 100 nM and the Dmax was 70 to 85%.
Take `CC(C)n1cnc2cc(-c3ccc4c(c3)N([C@H]3C[C@@H](N5CCCCC5)C3)C(=O)C43CCN(C(=O)[C@@H]4CCN(C(=O)C5CCN(c6ccc(C7CCC(=O)NC7=O)cn6)CC5)[C@@H]4C)CC3)nc(Nc3ccccc3F)c21` (mixture of isomers) [Example 249, (3RS)-3-(6-{4-[(2R,3R)-3-[(6-{4-[(2-fluorophenyl)amino]-3-(propan-2-yl)-3H-imidazo[4,5-c]pyridin-6-yl}-2-oxo-1-[(1S,3S)-3-(piperidin-1-yl)cyclobutyl]-1,2-dihydrospiro[indole-3,4′-piperidin]-1′-yl)carbonyl]-2-methylpyrrolidine-1-carbonyl]piperidin-1-yl}pyridin-3-yl)piperidine-2,6-dione]: the DC50 is < 100 nM and the Dmax lay in the range of 50 to 70%.
As to `CC(C)n1cnc2cc(-c3ccc4c(c3)N([C@H]3C[C@@H](N5CCCCC5)C3)C(=O)C43CCN(C(=O)[C@@H]4CCN(C(=O)C5CCN(c6ccc(C7CCC(=O)NC7=O)cn6)CC5)[C@H](C)C4)CC3)nc(NC3CC3)c21` (mixture of isomers) [Example 245, (3RS)-3-(6-{4-[(2R,4R)-4-({6-[4-(cyclopropylamino)-3-(propan-2-yl)-3H-imidazo[4,5-c]pyridin-6-yl]-2-oxo-1-[(1S,3S)-3-(piperidin-1-yl)cyclobutyl]-1,2-dihydrospiro[indole-3,4′-piperidin]-1′-yl}carbonyl)-2-methylpiperidine-1-carbonyl]piperidin-1-yl}pyridin-3-yl)piperidine-2,6-dione], the DC50 is < 100 nM and the Dmax fell in the range of 70 to 85%.
The corresponding values for `CC(C)n1cnc2cc(-c3ccc4c(c3)N([C@H]3C[C@@H](N5CCCCC5)C3)C(=O)C43CCN(C(=O)C4CCN(C(=O)C5CCN(c6ncc(C7CCC(=O)NC7=O)cn6)CC5)CC4)CC3)nc(Nc3ccncc3F)c21` (mixture of isomers) [Example 91, (3RS)-3-[2-(4-{4-[(6-{4-[(3-Fluoropyridin-4-yl)amino]-3-(propan-2-yl)-3H-imidazo[4,5-c]pyridin-6-yl}-2-oxo-1-[(1S,3S)-3-(piperidin-1-yl)cyclobutyl]-1,2-dihydrospiro[indole-3,4′-piperidin]-1′-yl)carbonyl]piperidine-1-carbonyl}piperidin-1-yl)pyrimidin-5-yl]piperidine-2,6-dione] are 100 to 500 nM and 50 to 70%.
As for `CC(C)n1cnc2cc(-c3ccc4c(c3)N([C@H]3C[C@@H](N(C)C)C3)C(=O)C43CCN(C(=O)C4CCN(C(=O)C5CCN(c6ccc(C7CCC(=O)NC7=O)cn6)CC5)CC4)CC3)nc(Nc3ccccc3F)c21` (mixture of isomers) [Example 75, (3RS)-3-[6-(4-{4-[(6-{4-[(2-fluorophenyl)amino]-3-(propan-2-yl)-3H-imidazo[4,5-c]pyridin-6-yl}-2-oxo-1-[(1S,3S)-3-(dimethylamino)cyclobutyl]-1,2-dihydrospiro[indole-3,4′-piperidin]-1′-yl)carbonyl]piperidine-1-carbonyl}piperidin-1-yl)pyridin-3-yl]piperidine-2,6-dione], the DC50 fell in the range of 100 to 500 nM and the Dmax was in the range of 70 to 85%.
As for `CC(C)n1cnc2cc(-c3ccc4c(c3)N([C@H]3C[C@@H](N5CCOCC5)C3)C(=O)C43CCN(C(=O)C4(C)CCN(C(=O)C5CCN(c6ccc(C7CCC(=O)NC7=O)cn6)CC5)CC4)CC3)nc(NC3CC3)c21` (mixture of isomers) [Example 216, (3RS)-3-(6-{4-[4-({6-[4-(cyclopropylamino)-3-(propan-2-yl)-3H-imidazo[4,5-c]pyridin-6-yl]-2-oxo-1-[(1S,3S)-3-(MORPHOLIN-4-yl)cyclobutyl]-1,2-dihydrospiro[indole-3,4′-piperidin]-1′-yl}carbonyl)-4-methylpiperidine-1-carbonyl]piperidin-1-yl}pyridin-3-yl)piperidine-2,6-dione], the DC50 fell in the range of 100 to 500 nM and the Dmax was 50 to 70%.
Consider `CC(C)n1cnc2cc(-c3ccc4c(c3)N([C@H]3C[C@@H](N5CCCCC5)C3)C(=O)C43CCN(C(=O)[C@]45C[C@H]4CN(C(=O)C4CCN(c6ccc(C7CCC(=O)NC7=O)cc6)CC4)C5)CC3)nc(NC3CC3)c21` (mixture of isomers) [Example 263, (3RS)-3-(4-{4-[(1R,5R)-1-({6-[4-(cyclopropylamino)-3-(propan-2-yl)-3H-imidazo[4,5-c]pyridin-6-yl]-2-oxo-1-[(1S,3S)-3-(piperidin-1-yl)cyclobutyl]-1,2-dihydrospiro[indole-3,4′-piperidin]-1′-yl}carbonyl)-3-azabicyclo[3.1.0]hexane-3-carbonyl]piperidin-1-yl}phenyl)piperidine-2,6-dione], for which the DC50 is < 100 nM and the Dmax lay in the range of 50 to 70%.
In the case of `CC(C)n1cnc2cc(-c3ccc4c(c3)N([C@H]3C[C@@H](N5CCCCC5)C3)C(=O)C43CCN(C(=O)C4(C)CCN(C(=O)C5CCN(c6ccc(N7CCC(=O)NC7=O)cn6)CC5)CC4)CC3)nc(Nc3ccccc3F)c21` [Example 116, 1-[6-(4-{4-[(6-{4-[(2-fluorophenyl)amino]-3-(propan-2-yl)-3H-imidazo[4,5-c]pyridin-6-yl}-2-oxo-1-[(1S,3S)-3-(piperidin-1-yl)cyclobutyl]-1,2-dihydrospiro[indole-3,4′-piperidin]-1′-yl)carbonyl]-4-methylpiperidine-1-carbonyl}piperidin-1-yl)pyridin-3-yl]-1,3-diazinane-2,4-dione], the DC50 was < 100 nM and the Dmax is > 85%.
The matching figures for `CC(C)n1cnc2cc(-c3ccc4c(c3)N([C@H]3C[C@@H](N5CCCCC5)C3)C(=O)C43CCN(C(=O)C4CCN(C(=O)C5CCN(c6ccc(N7CCC(=O)NC7=O)cn6)CC5)CC4)CC3)nc(NC3CC3)c21` [Example 79, 1-(6-{4-[4-({6-[4-(cyclopropylamino)-3-(propan-2-yl)-3H-imidazo[4,5-c]pyridin-6-yl]-2-oxo-1-[(1S,3S)-3-(piperidin-1-yl)cyclobutyl]-1,2-dihydrospiro[indole-3,4′-piperidin]-1′-yl}carbonyl)piperidine-1-carbonyl]piperidin-1-yl}pyridin-3-yl)-1,3-diazinane-2,4-dione]: < 100 nM and 50 to 70%.

For the origin of these results see US12091426B2, “Bifunctional degraders of hematopoietic progenitor kinase and therapeutic uses thereof” (Nurix Therapeutics, Inc., priority 2021, dated 2024).
